ChEMBL document CHEMBL5143637, “Design, synthesis and antibacterial activity against pathogenic mycobacteria of conjugated hydroxamic acids, hydrazides and O-alkyl/O-acyl protected hydroxamic derivatives” (Bioorg Med Chem Lett, 2022)
≈ marks a conversion by molar mass, not a printed value.

Tests used:
[1] = system: Mycobacteroides abscessus; assay: Antimycobacterial activity against Mycobacterium abscessus CIP104536T with smooth morphotype assessed as inhibition of mycobacterial growth incubated for 3 to 5 days by resazurin microtiter assay; type: functional; settings: time 3-5 day
[2] = system: Mycobacteroides abscessus; assay: Antimycobacterial activity against Mycobacterium abscessus CIP104536T with rough morphotype assessed as inhibition of mycobacterial growth incubated for 3 to 5 days by resazurin microtiter assay; type: functional; settings: time 3-5 day
[3] = system: Mycobacterium marinum; assay: Antimycobacterial activity against Mycobacterium marinum ATCC BAA-535/M assessed as inhibition of mycobacterial growth incubated for 10 to 14 days by resazurin microtiter assay; type: functional; settings: time 10-14 day
[4] = system: Mycobacterium tuberculosis; assay: Antimycobacterial activity against Mycobacterium tuberculosis mc2 6230 assessed as inhibition of mycobacterial growth incubated for 10 to 14 days by resazurin microtiter assay; type: functional; settings: time 10-14 day
[5] = system: BMDM; assay: (§1) Cytotoxicity against C57BL/6 mouse BMDM cells assessed as reduction in cell viability measured after 24 hrs by resazurin dye based assay; type: toxicity; settings: mouse, bmdm, 24 h
[6] = system: Mycobacterium tuberculosis; assay: Antimycobacterial activity against Mycobacterium tuberculosis H37Rv assessed as inhibition of bacterial growth incubated for 8 days; type: functional; settings: 192 h, time 8 day
[7] = system: Mycolicibacterium smegmatis; assay: Antimycobacterial activity against wild type Mycobacterium smegmatis mc2 155 assessed as inhibition of mycobacterial growth incubated for 3 to 5 days by resazurin microtiter assay; type: functional; settings: time 3-5 day
[8] = system: Mycolicibacterium smegmatis; assay: Antimycobacterial activity against Mycobacterium smegmatis mc2 155 harbouring pMyC empty vector assessed as inhibition of mycobacterial growth incubated for 3 to 5 days by resazurin microtiter assay; type: functional; settings: time 3-5 day
[9] = system: Mycolicibacterium smegmatis; assay: Antimycobacterial activity against Mycobacterium smegmatis mc2 155 harbouring pMyC::PDFMtb overexpression mutant assessed as inhibition of mycobacterial growth incubated for 3 to 5 days by resazurin microtiter assay; type: functional; settings: time 3-5 day
[10] = Selectivity index, ratio of MIC50 for antimycobacterial activity against Mycobacterium smegmatis mc2 155 harbouring pMyC empty vector to MIC50 for antimycobacterial activity against wild type Mycobacterium smegmatis mc2 155; type: functional
[11] = Selectivity index, ratio of MIC90 for antimycobacterial activity against Mycobacterium smegmatis mc2 155 harbouring pMyC empty vector to MIC90 for antimycobacterial activity against wild type Mycobacterium smegmatis mc2 155; type: functional
[12] = Selectivity index, ratio of MIC50 for antimycobacterial activity against Mycobacterium smegmatis mc2 155 harbouring pMyC::PDFMtb overexpression mutant to MIC50 for antimycobacterial activity against wild type Mycobacterium smegmatis mc2 155; type: functional
[13] = Selectivity index, ratio of MIC90 for antimycobacterial activity against Mycobacterium smegmatis mc2 155 harbouring pMyC::PDFMtb overexpression mutant to MIC90 for antimycobacterial activity against wild type Mycobacterium smegmatis mc2 155; type: functional
[14] = Cytotoxicity against mouse BMDM cells; type: toxicity, cell-based; settings: BMDM cells (bone marrow-derived macrophages)
[15] = as §1; type: toxicity; settings: C57BL/6, mouse, BMDM cells (bone marrow-derived macrophages)
[16] = Inhibition of Mycobacterium tuberculosis H37Rv PDF expressed in Escherichia coli using N-formyl-methionine-alanine-serine as substrate incubated for 2.5 mins by fluorescence based microplate reader analysis

SMILES	MIC50 [1] [µg/mL]	MIC50 [2] [µg/mL]	MIC50 [3] [µg/mL]	MIC90 [3] [µg/mL]	MIC50 [4] [µg/mL]	MIC90 [4] [µg/mL]	MIC50 [7] [µg/mL]	MIC90 [7] [µg/mL]	MIC50 [8] [µg/mL]	MIC90 [8] [µg/mL]	MIC50 [9] [µg/mL]	MIC90 [9] [µg/mL]	Ratio [10]	Ratio [11]	Ratio [12]	Ratio [13]	also measured
Cl.O=C(/C=C/c1ccncc1)NO	> 100	> 100	12.6	54	32.1	33.6											CC50 [5]: < 10 µg/mL
NNC(=O)c1ccncc1 [ISONIAZID]			2.8 (≈ 20.4 µM)	9.2 (≈ 67.1 µM)	0.07 (≈ 0.51 µM)	0.11 (≈ 0.802 µM)	1.4 (≈ 10.2 µM)	3.1 (≈ 22.6 µM)	1.3 (≈ 9.48 µM)	2.7 (≈ 19.7 µM)	1.2 (≈ 8.75 µM)	2.5 (≈ 18.2 µM)	0.9	0.86	0.84	0.8	MIC [6]: 0.1 µg/mL (≈ 0.729 µM); CC50 [14]: > 20 µg/mL
NNC(=O)/C=C/c1ccc(-c2ccccc2)cc1	> 100	18.9 (≈ 79.3 µM)	22.2 (≈ 93.2 µM)	71.5 (≈ 300 µM)	13.1 (≈ 55 µM)	22 (≈ 92.3 µM)	9.6 (≈ 40.3 µM)	53.6 (≈ 225 µM)	7.2 (≈ 30.2 µM)	43.8 (≈ 184 µM)	56.6 (≈ 238 µM)	> 200	0.75	0.75	5.9	> 3.7	MIC90 [2]: > 100 µg/mL; CC50 at 24 h [15]: 125 µg/mL (≈ 525 µM)
NC[C@H]1O[C@H](O[C@H]2[C@H](O)[C@@H](O[C@H]3O[C@H](CO)[C@@H](O)[C@H](N)[C@H]3O)[C@H](N)C[C@@H]2N)[C@H](O)[C@@H](O)[C@@H]1O [KANAMYCIN]							0.4 (≈ 0.826 µM)	0.94 (≈ 1.94 µM)	0.48 (≈ 0.991 µM)	1.07 (≈ 2.21 µM)	0.49 (≈ 1.01 µM)	0.87 (≈ 1.8 µM)	1.2	1.14	1.23	0.93	
CO[C@H]1/C=C/O[C@@]2(C)Oc3c(C)c(O)c4c(O)c(c(/C=N/N5CCN(C)CC5)c(O)c4c3C2=O)NC(=O)/C(C)=C\C=C\[C@H](C)[C@H](O)[C@@H](C)[C@@H](O)[C@@H](C)[C@H](OC(C)=O)[C@@H]1C [RIFAMPIN]							0.76 (≈ 0.924 µM)	0.76 (≈ 0.924 µM)	0.57 (≈ 0.693 µM)	2.83 (≈ 3.44 µM)	0.63 (≈ 0.766 µM)	2.4 (≈ 2.92 µM)	0.75	1.09	0.83	0.93	
CCCC[C@H](CN(O)C=O)C(=O)N1CCC[C@H]1C(=O)Nc1ccccn1																	IC50 [16]: 0.0695 µM
NCC[C@H](O)C(=O)N[C@@H]1C[C@H](N)[C@@H](O[C@H]2O[C@H](CN)[C@@H](O)[C@H](O)[C@H]2O)[C@H](O)[C@H]1O[C@H]1O[C@H](CO)[C@@H](O)[C@H](N)[C@H]1O [AMIKACIN]	2.3 (≈ 3.93 µM)	4.3 (≈ 7.34 µM)	0.62 (≈ 1.06 µM)	1.7 (≈ 2.9 µM)	0.24 (≈ 0.41 µM)	0.37 (≈ 0.632 µM)											MIC90 [1]: 3.4 µg/mL (≈ 5.81 µM); MIC90 [2]: 5.9 µg/mL (≈ 10.1 µM); CC50 [14]: > 90 µg/mL
